Laboratory results: the NIST ThermoML archive (doi:10.1016/j.fluid.2008.06.012)
± gives the expanded uncertainty stated by the source.

How the values were obtained:
[1] = 298.15 K, 101.33 kPa, Liquid
[2] = refractive index (Na D-line) (dimensionless); settings: 298.15 K; 101.33 kPa; Liquid; Standard Abbe refractometry

Compound | mass density ([1]; Vibrating tube method) [kg/m3] | refractive index [2] | mass density [1] [kg/m3]
CCOS(=O)(=O)[O-].CCn1cc[n+](C)c1 [1-ethyl-3-methylimidazolium ethyl sulfate] | 1238.17 ± 8.3 | 1.47903 ± 0.0012 | 
c1ccsc1 [thiophene] |  | 1.5253 ± 0.00068 | 1058.59 ± 0.28
CCCCCCC [heptane] |  | 1.38517 ± 0.00068 | 679.47 ± 0.66
CCCCCCCCCCCCCCCC [hexadecane] |  | 1.43232 ± 0.0007 | 771.15 ± 0.85
CCCCCCCCCCCC [dodecane] |  | 1.42011 ± 0.0007 | 745.32 ± 0.91
CCCCCC [hexane] |  | 1.37287 ± 0.0007 | 655.06 ± 1.1
